PMC12736255, “Reinvestigating Pyrrol-2-One-Based Compounds: From Antimicrobial Agents to Promising Antitumor Candidates” (Pharmaceuticals, 2025)

Assays:
[1] = test system: 786-0; assay: NCI-60 single-dose screen; type: cell-based; settings: Homo sapiens; 786-0, 10^–5 M; read-out: GI (%)
Summary of the method: (§1)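 At 10^−5 M, the submitted compounds were screened once across the NCI collection of 60 human cancer lines representing leukemia, melanoma and solid tumors of lung, colon, brain, ovary, kidney, prostate and breast.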

[2] = test system: SF-268; assay: NCI-60 single-dose screen; type: cell-based; settings: Homo sapiens; SF-268, 10^–5 M; read-out: GI (%)
Summary of the method: as §1

[3] = test system: HCT-15; assay: NCI-60 single-dose screen; type: cell-based; settings: Homo sapiens; HCT-15, 10^–5 M; read-out: GI (%)
Summary of the method: as §1

[4] = test system: OVCAR-8; assay: NCI-60 single-dose screen; type: cell-based; settings: Homo sapiens; OVCAR-8, 10^–5 M; read-out: GI (%)
Summary of the method: as §1

[5] = test system: HOP-92; assay: NCI-60 single-dose screen; type: cell-based; settings: Homo sapiens; HOP-92, 10^–5 M; read-out: GI (%)
Summary of the method: as §1

[6] = test system: CCRF-CEM; assay: NCI-60 single-dose screen; type: cell-based; settings: Homo sapiens, 10^–5 M, read-out: GI (%)
Summary of the method: as §1

[7] = test system: UACC-62; assay: NCI-60 single-dose screen; type: cell-based; settings: Homo sapiens; UACC-62, 10^–5 M; read-out: GI (%)
Summary of the method: as §1

[8] = test system: SK-MEL-2; assay: NCI-60 single-dose screen; type: cell-based; settings: Homo sapiens; SK-MEL-2, 10^–5 M; read-out: GI (%)
Summary of the method: as §1

[9] = test system: NCI-H460; assay: NCI-60 single-dose screen; type: cell-based; settings: Homo sapiens; NCI-H460, 10^–5 M; read-out: GI (%)
Summary of the method: as §1

[10] = test system: HCC-2998; assay: NCI-60 single-dose screen; type: cell-based; settings: Homo sapiens; HCC-2998, 10^–5 M; read-out: GI (%)
Summary of the method: as §1

[11] = test system: MOLT-4; assay: NCI-60 single-dose screen; type: cell-based; settings: Homo sapiens; MOLT-4, 10^–5 M; read-out: GI (%)
Summary of the method: as §1

[12] = test system: SW-620; assay: NCI-60 single-dose screen; type: cell-based; settings: Homo sapiens; SW-620, 10^–5 M; read-out: GI (%)
Summary of the method: as §1

[13] = test system: EKVX; assay: NCI-60 single-dose screen; type: cell-based, human; settings: Homo sapiens, 10^–5 M, read-out: GI (%)
Excerpt: (§2) In the next step, all synthesized compounds were electronically submitted and accepted for testing to the National Cancer Institute (NCI) platform, for the single dose (10^−5 M) screening against a panel of 60 human tumor cell lines, representing leukemia, melanoma, and cancers of the lung, colon, central nervous system, ovary, kidney, prostate, and breast. The results are summarized in Table 2, with the best values highlighted in red (Figures S1–S14).

[14] = test system: SF-295; assay: NCI-60 single-dose screen; type: cell-based, human; settings: SF-295, 10^–5 M
Excerpt: as §2

[15] = test system: HOP-62; assay: NCI-60 single-dose screen; type: cell-based, human; settings: HOP-62, 10^–5 M
Excerpt: as §2

[16] = test system: MDA-MB-468; assay: NCI-60 single-dose screen; type: cell-based, human; settings: MDA-MB-468, 10^–5 M
Excerpt: as §2

[17] = test system: U251; assay: NCI-60 single-dose screen; type: cell-based, human; settings: U251, 10^–5 M
Excerpt: as §2

[18] = test system: BT-549; assay: NCI-60 single-dose screen; type: cell-based, human; settings: BT-549, 10^–5 M
Excerpt: as §2

[19] = test system: NCI-H226; assay: NCI-60 single-dose screen; type: cell-based, human; settings: Homo sapiens; NCI-H226, 10^–5 M; read-out: GI (%)
Excerpt: as §2

[20] = test system: UO-31; assay: NCI-60 single-dose screen; type: cell-based, human; settings: UO-31, 10^–5 M
Excerpt: as §2

[21] = test system: COLO 205; assay: NCI-60 5-dose screen; type: cell-based, human
[22] = test system: HOP-92; assay: NCI-60 5-dose screen; type: cell-based, human
[23] = test system: MDA-MB-231/ATCC; assay: NCI-60 5-dose screen; type: cell-based, human
[24] = test system: HS 578T; assay: NCI-60 5-dose screen; type: cell-based, human
[25] = test system: RPMI-8226; assay: NCI-60 5-dose screen; type: cell-based, human
[26] = test system: RXF 393; assay: NCI-60 5-dose screen; type: cell-based, human
[27] = test system: KM12; assay: NCI-60 5-dose screen; type: cell-based, human
[28] = test system: A549/ATCC; assay: NCI-60 5-dose screen; type: cell-based, human
[29] = test system: SK-MEL-2; assay: NCI-60 5-dose screen; type: cell-based, human
[30] = test system: TK-10; assay: NCI-60 5-dose screen; type: cell-based, human
[31] = test system: IGROV1; assay: NCI-60 5-dose screen; type: cell-based, human
[32] = test system: MDA-MB-468; assay: NCI-60 5-dose screen; type: cell-based, human
[33] = test system: PC-3; assay: NCI-60 5-dose screen; type: cell-based, human
[34] = test system: ACHN; assay: NCI-60 5-dose screen; type: cell-based, human
[35] = test system: HL-60(TB); assay: NCI-60 5-dose screen; type: cell-based, human
[36] = Homo sapiens, read-out: LC50 (the source's name)

O=C1C(Nc2ccc(I)cc2)=CC(c2ccc3c(c2)OCO3)N1c1ccc(I)cc1 (centres unmarked) [3n]
inhibition at 10 µM [1]: 9% | inhibition at 10 µM [2]: 25% | inhibition at 10 µM [3]: 9% | inhibition at 10 µM [4]: 0% | inhibition at 10 µM [5]: 4% | inhibition at 10 µM [6]: 3% | inhibition at 10 µM [7]: 0% | inhibition at 10 µM [8]: 56% | inhibition at 10 µM [9]: 3% | inhibition at 10 µM [10]: 6% | inhibition at 10 µM [11]: 20% | inhibition at 10 µM [12]: 9% | inhibition at 10 µM [13]: 12% | GI (%) [14]: 9% | GI (%) [15]: 0% | GI (%) [16]: 83% | GI (%) [17]: 0% | GI (%) [18]: 3% | inhibition at 10 µM [19]: 3% | GI (%) [20]: 6%

O=C1C(Nc2ccc(I)cc2)=CC(c2ccc(O)c(O)c2)N1c1ccc(I)cc1 (centres unmarked) [3h]
TGI [21]: >100 µM | GI50 ([21]; Homo sapiens): 6.65 µM | CC50 [21, 36]: > 100 µM | TGI [22]: 8.97 µM | GI50 ([22]; Homo sapiens): 4.08 µM | CC50 [22, 36]: > 100 µM | TGI [23]: >100 µM | GI50 ([23]; Homo sapiens): > 100 µM | CC50 [23, 36]: > 100 µM | TGI [24]: >100 µM | GI50 ([24]; Homo sapiens): 6.65 µM | CC50 [24, 36]: > 100 µM | TGI [25]: 6.01 µM | GI50 ([25]; Homo sapiens): 2.4 µM | CC50 [25, 36]: > 100 µM | TGI [26]: >100 µM | GI50 ([26]; Homo sapiens): 6.25 µM | CC50 [26, 36]: > 100 µM | TGI [27]: >100 µM | GI50 ([27]; Homo sapiens): 5.22 µM | CC50 [27, 36]: > 100 µM | inhibition at 10 µM [1]: 52% | inhibition at 10 µM [2]: 82% | inhibition at 10 µM [3]: 84% | inhibition at 10 µM [4]: 37% | inhibition at 10 µM [5]: 66% | inhibition at 10 µM [6]: 100% | inhibition at 10 µM [7]: 62% | inhibition at 10 µM [8]: 100% | inhibition at 10 µM [9]: 98% | inhibition at 10 µM [10]: 98% | inhibition at 10 µM [11]: 100% | inhibition at 10 µM [12]: 100% | inhibition at 10 µM [13]: 22% | GI (%) [14]: 56% | GI (%) [15]: 82% | GI (%) [16]: 100 ^h1% | GI (%) [17]: 58% | GI (%) [18]: 81% | inhibition at 10 µM [19]: 35% | GI (%) [20]: 54% | TGI [28]: >100 µM | GI50 ([28]; Homo sapiens): > 100 µM | CC50 [28, 36]: > 100 µM | TGI [29]: >100 µM | GI50 ([29]; Homo sapiens): 6.64 µM | CC50 [29, 36]: > 100 µM | TGI [30]: >100 µM | GI50 ([30]; Homo sapiens): > 100 µM | CC50 [30, 36]: > 100 µM | TGI [31]: >100 µM | GI50 ([31]; Homo sapiens, IGROV-1): > 100 µM | CC50 ([31]; Homo sapiens, IGROV-1, read-out: LC50 (the source's name)): > 100 µM | TGI [32]: >100 µM | GI50 ([32]; Homo sapiens): 3.1 µM | CC50 [32, 36]: > 100 µM | TGI [33]: >100 µM | GI50 ([33]; Homo sapiens): 8.83 µM | CC50 [33, 36]: > 100 µM | TGI [34]: >100 µM | GI50 ([34]; Homo sapiens): > 100 µM | CC50 [34, 36]: > 100 µM | TGI [35]: 4.28 µM | GI50 ([35]; Homo sapiens): 2.19 µM | CC50 [35, 36]: 8.38 µM

COc1ccccc1C1C=C(Nc2ccc(I)cc2)C(=O)N1c1ccc(I)cc1 (centres unmarked) [3i]
inhibition at 10 µM [2]: 24% | inhibition at 10 µM [3]: 13% | inhibition at 10 µM [4]: 17% | inhibition at 10 µM [5]: 20% | inhibition at 10 µM [6]: 0% | inhibition at 10 µM [7]: 21% | inhibition at 10 µM [8]: 44% | inhibition at 10 µM [9]: 9% | inhibition at 10 µM [10]: 21% | inhibition at 10 µM [11]: 17% | inhibition at 10 µM [12]: 14% | inhibition at 10 µM [13]: 49% | GI (%) [14]: 28% | GI (%) [15]: 0% | GI (%) [16]: 43% | GI (%) [17]: 0% | GI (%) [18]: 2% | inhibition at 10 µM [19]: 36% | GI (%) [20]: 27%

O=C1C(Nc2ccc(I)cc2)=CC(c2ccco2)N1c1ccc(I)cc1 (centres unmarked) [3m]
inhibition at 10 µM [1]: 36% | inhibition at 10 µM [2]: 79% | inhibition at 10 µM [3]: 16% | inhibition at 10 µM [4]: 11% | inhibition at 10 µM [5]: 29% | inhibition at 10 µM [6]: 59% | inhibition at 10 µM [7]: 61% | inhibition at 10 µM [8]: 100% | inhibition at 10 µM [9]: 0% | inhibition at 10 µM [10]: 10% | inhibition at 10 µM [11]: 70% | inhibition at 10 µM [12]: 16% | inhibition at 10 µM [13]: 39% | GI (%) [14]: 63% | GI (%) [15]: 50% | GI (%) [16]: 100 ^q1% | GI (%) [17]: 0% | GI (%) [18]: 17% | inhibition at 10 µM [19]: 22% | GI (%) [20]: 17%

COc1cc(OC)c(C2C=C(Nc3ccc(I)cc3)C(=O)N2c2ccc(I)cc2)cc1OC (centres unmarked) [3k]
inhibition at 10 µM [1]: 3% | inhibition at 10 µM [2]: 1% | inhibition at 10 µM [3]: 0% | inhibition at 10 µM [4]: 0% | inhibition at 10 µM [5]: 0% | inhibition at 10 µM [6]: 0% | inhibition at 10 µM [7]: 0% | inhibition at 10 µM [8]: 0% | inhibition at 10 µM [9]: 0% | inhibition at 10 µM [10]: 5% | inhibition at 10 µM [11]: 0% | inhibition at 10 µM [12]: 0% | inhibition at 10 µM [13]: 0% | GI (%) [14]: 2% | GI (%) [15]: 0% | GI (%) [16]: 44% | GI (%) [17]: 0% | GI (%) [18]: 10% | inhibition at 10 µM [19]: 0% | GI (%) [20]: 0%

COc1ccc(C2C=C(Nc3ccc(I)cc3)C(=O)N2c2ccc(I)cc2)cc1OC (centres unmarked) [3j]
inhibition at 10 µM [1]: 0% | inhibition at 10 µM [2]: 3% | inhibition at 10 µM [3]: 0% | inhibition at 10 µM [4]: 0% | inhibition at 10 µM [5]: 0% | inhibition at 10 µM [6]: 0% | inhibition at 10 µM [7]: 0% | inhibition at 10 µM [8]: 0% | inhibition at 10 µM [9]: 0% | inhibition at 10 µM [10]: 0% | inhibition at 10 µM [11]: 0% | inhibition at 10 µM [12]: 0% | inhibition at 10 µM [13]: 40% | GI (%) [14]: 0% | GI (%) [15]: 0% | GI (%) [16]: 22% | GI (%) [17]: 0% | GI (%) [18]: 0% | inhibition at 10 µM [19]: 0% | GI (%) [20]: 0%
